Assay results reported in ChEMBL document CHEMBL5634100, “Novel spiro[pyrrolidine-2,3'-quinoline]-2'-one derivatives containing piperazine fragment as potential chitin synthase inhibitors and antifungal agents: Design, synthesis and biological evaluation” (Eur J Med Chem, 2023).
≈ marks a conversion by molar mass, not a printed value. Calls of active or inactive are those of the source. No cut-off for these calls is given here. Numbered stars: 1 amine (or outer) side, 2 acyl side, 3 side chain; on linkers, the order of the positions; unused ones are H or OH. Bridge positions count the residues as written; N and C are the ends. Square brackets hold non-standard residues; d marks the D form. Peptide text beside a SMILES is read from it. * marks the point of attachment. hTyr(3S-OH,4S-OH,3'-OSO3H) = N[C@H](C(=O)O)[C@H](O)[C@@H](O)c1ccc(O)c(OS(=O)(=O)O)c1; Orn(4R-OH,5R-OH) = O=C([C@H](C[C@@H](O)[C@@H](O)N[*:3])N[*:1])[*:2]; Pro(3S-OH,4S-Me) = C[C@H]1CN[C@H](C(=O)O)[C@H]1O; X1 = CCCCCOc1ccc(-c2cc(-c3ccc(C(=O)*)cc3)no2)cc1; Gln(3R-OH) = NC(=O)C[C@@H](O)[C@H](N)C(=O)O; Hyp = O=C(O)[C@@H]1C[C@@H](O)CN1

What was measured:
Cryptococcus neoformans [1] = experiment: Antimicrobial activity against Cryptococcus neoformans ATCC 32719 incubated for 24 hrs by two fold serial dilution method; assay type: functional
Aspergillus fumigatus [2] = experiment: Antimicrobial activity against Aspergillus fumigatus GIMCC 3.19 assessed as inhibition of cell wall synthesis in presence of sorbitol; assay type: functional
[3] = Binding affinity to Candida tropicalis ATCC 750 chitin synthase assessed as inhibition constant by Lineweaver-Burk plot analysis
Candida albicans [4] = experiment: Antimicrobial activity against Candida albicans ATCC 76615 incubated for 24 hrs by two fold serial dilution method; assay type: functional
Candida albicans [5] = experiment: Antimicrobial activity against fluconazole-resistant Candida albicans ATCC 76615R incubated for 24 hrs by two fold serial dilution method; assay type: functional
Aspergillus flavus [6] = experiment: Antimicrobial activity against Fluconazole-resistant Aspergillus flavus ATCC 16870R incubated for 24 hrs by two fold serial dilution method; assay type: functional
[7] = Inhibition of Candida tropicalis ATCC 750 chitin synthase using UDP-GlcNAc as substrate by TMB based microplate analyzer
Aspergillus flavus [8] = experiment: Antimicrobial activity against Aspergillus flavus ATCC 16870 assessed as inhibition of cell wall synthesis in presence of sorbitol; assay type: functional
Cryptococcus neoformans [9] = experiment: Antimicrobial activity against Fluconazole-resistant Cryptococcus neoformans ATCC 32719R incubated for 24 hrs by two fold serial dilution method; assay type: functional
Aspergillus flavus [10] = experiment: Antimicrobial activity against Aspergillus flavus ATCC 16870 incubated for 24 hrs by two fold serial dilution method; assay type: functional
Cryptococcus neoformans [11] = experiment: Antimicrobial activity against Cryptococcus neoformans ATCC 32719 assessed as inhibition of cell wall synthesis in presence of sorbitol; assay type: functional
Candida albicans [12] = experiment: Antimicrobial activity against Candida albicans ATCC 76615 assessed as inhibition of cell wall synthesis in presence of sorbitol; assay type: functional
Aspergillus fumigatus [13] = experiment: Antimicrobial activity against Aspergillus fumigatus GIMCC 3.19 incubated for 24 hrs by two fold serial dilution method; assay type: functional
Aspergillus fumigatus [14] = experiment: Antimicrobial activity against Fluconazole-resistant Aspergillus fumigatus GIMCC 3.19R incubated for 24 hrs by two fold serial dilution method; assay type: functional
Candida tropicalis [15] = experiment: Inhibition of Candida tropicalis ATCC 750 chitin synthase using UDP-GlcNAc as substrate at 300 ug/ml by TMB based microplate analyzer relative to control; settings: dose 300.0 µg/ml
Candida tropicalis [16] = experiment: Non-competitive inhibition of Candida tropicalis ATCC 750 chitin synthase using UDP-GlcNAc as substrate assessed as decrease in Vmax with constant Km by Lineweaver-Burk plot analysis
Candida albicans [17] = experiment: Antimicrobial activity against micafungin-resistant Candida albicans ATCC 76615R incubated for 24 hrs by two fold serial dilution method; assay type: functional
Aspergillus flavus [18] = experiment: Synergistic antimicrobial activity against Aspergillus flavus ATCC 16870 assessed as fractional inhibitory concentration index incubated for 24 hrs in presence of polyoxin B by checkerboard method; assay type: functional
Aspergillus flavus [19] = experiment: Antimicrobial activity against Aspergillus flavus ATCC 16870 incubated for 24 hrs in presence of fluconazole by checkerboard method; assay type: functional
Aspergillus flavus [20] = experiment: Antimicrobial activity against Aspergillus flavus ATCC 16870 incubated for 24 hrs in presence of polyoxin B by checkerboard method; assay type: functional
Candida albicans [21] = experiment: Synergistic antimicrobial activity against Candida albicans ATCC 76615 assessed as fractional inhibitory concentration index incubated for 24 hrs in presence of fluconazole by checkerboard method; assay type: functional
Aspergillus fumigatus [22] = experiment: Antimicrobial activity against Aspergillus fumigatus GIMCC 3.19 incubated for 24 hrs in presence of polyoxin B by checkerboard method; assay type: functional
Candida albicans [23] = experiment: Antimicrobial activity against Candida albicans ATCC 76615 incubated for 24 hrs in presence of polyoxin B by checkerboard method; assay type: functional
Candida albicans [24] = experiment: Synergistic antimicrobial activity against Candida albicans ATCC 76615 assessed as fractional inhibitory concentration index incubated for 24 hrs in presence of polyoxin B by checkerboard method; assay type: functional
Candida albicans [25] = experiment: Antimicrobial activity against Candida albicans ATCC 76615 incubated for 24 hrs in presence of fluconazole by checkerboard method; assay type: functional
Aspergillus fumigatus [26] = experiment: Synergistic antimicrobial activity against Aspergillus fumigatus GIMCC 3.19 assessed as fractional inhibitory concentration index incubated for 24 hrs in presence of fluconazole by checkerboard method; assay type: functional
Cryptococcus neoformans [27] = experiment: Additive antimicrobial activity against Cryptococcus neoformans ATCC 32719 assessed as fractional inhibitory concentration index incubated for 24 hrs in presence of fluconazole by checkerboard method; assay type: functional
Aspergillus fumigatus [28] = experiment: Synergistic antimicrobial activity against Aspergillus fumigatus GIMCC 3.19 assessed as fractional inhibitory concentration index incubated for 24 hrs in presence of polyoxin B by checkerboard method; assay type: functional
Cryptococcus neoformans [29] = experiment: Antimicrobial activity against Cryptococcus neoformans ATCC 32719 incubated for 24 hrs in presence of fluconazole by checkerboard method; assay type: functional
Cryptococcus neoformans [30] = experiment: Additive antimicrobial activity against Cryptococcus neoformans ATCC 32719 assessed as fractional inhibitory concentration index incubated for 24 hrs in presence of polyoxin B by checkerboard method; assay type: functional
Cryptococcus neoformans [31] = experiment: Antimicrobial activity against Cryptococcus neoformans ATCC 32719 incubated for 24 hrs in presence of polyoxin B by checkerboard method; assay type: functional
Aspergillus flavus [32] = experiment: Synergistic antimicrobial activity against Aspergillus flavus ATCC 16870 assessed as fractional inhibitory concentration index incubated for 24 hrs in presence of fluconazole by checkerboard method; assay type: functional
Aspergillus fumigatus [33] = experiment: Antimicrobial activity against Aspergillus fumigatus GIMCC 3.19 incubated for 24 hrs in presence of fluconazole by checkerboard method; assay type: functional

SMILES | MIC (Cryptococcus neoformans [1]) | MIC (Candida albicans [4]) | MIC (Aspergillus flavus [10]) | MIC (Aspergillus fumigatus [13]) | inhibition (Candida tropicalis [15]) | MIC (Aspergillus fumigatus [2]) | MIC (Candida albicans [5]) | MIC (Aspergillus flavus [6]) | IC50 [7] | MIC (Aspergillus flavus [8]) | MIC (Cryptococcus neoformans [9]) | MIC (Cryptococcus neoformans [11]) | MIC (Candida albicans [12]) | MIC (Aspergillus fumigatus [14]) | MIC (Candida albicans [17]) | other results
O=C(c1cccc([N+](=O)[O-])c1)N1CCN(CC(=O)N2CCCC23Cc2ccccc2NC3=O)CC1 (stereo not given) | 32 µg/mL (≈ 67 µM) | 4 µg/mL (≈ 8.38 µM) | 4 µg/mL (≈ 8.38 µM) | 8 µg/mL (≈ 16.8 µM) | 81.2% | 64 µg/mL | 64 µg/mL (≈ 134 µM) | 32 µg/mL (≈ 67 µM) | 120 µM | 128 µg/mL | 64 µg/mL (≈ 134 µM) | 256 µg/mL | 128 µg/mL | 64 µg/mL (≈ 134 µM) | 64 µg/mL (≈ 134 µM) | Ki [3]: 140 µM; inhibition (Candida tropicalis [16]): Active
O=C(c1c(F)cccc1F)N1CCN(CC(=O)N2CCCC23Cc2ccccc2NC3=O)CC1 (stereo not given) | 8 µg/mL (≈ 17.1 µM) | 1 µg/mL (≈ 2.13 µM) | 2 µg/mL (≈ 4.27 µM) | 0.5 µg/mL (≈ 1.07 µM) | 83.4% | 64 µg/mL | 64 µg/mL (≈ 137 µM) | 64 µg/mL (≈ 137 µM) | 110 µM | 256 µg/mL | 128 µg/mL (≈ 273 µM) | 256 µg/mL | 128 µg/mL | 64 µg/mL (≈ 137 µM) | 64 µg/mL (≈ 137 µM) | fractional inhibitory concentration index (FICI) (Aspergillus flavus [18]): 0.375; MIC (Aspergillus flavus [19]): 4 µg/mL; MIC (Aspergillus flavus [20]): 1 µg/mL; fractional inhibitory concentration index (FICI) (Candida albicans [21]): 0.75; MIC (Aspergillus fumigatus [22]): 2 µg/mL; MIC (Candida albicans [23]): 1 µg/mL; fractional inhibitory concentration index (FICI) (Candida albicans [24]): 0.625; MIC (Candida albicans [25]): 1 µg/mL; fractional inhibitory concentration index (FICI) (Aspergillus fumigatus [26]): 0.625; fractional inhibitory concentration index (FICI) (Cryptococcus neoformans [27]): 1.125; fractional inhibitory concentration index (FICI) (Aspergillus fumigatus [28]): 0.75; MIC (Cryptococcus neoformans [29]): 1 µg/mL; fractional inhibitory concentration index (FICI) (Cryptococcus neoformans [30]): 1.125; MIC (Cryptococcus neoformans [31]): 2 µg/mL; fractional inhibitory concentration index (FICI) (Aspergillus flavus [32]): 0.75; MIC (Aspergillus fumigatus [33]): 2 µg/mL
CCCCCOc1ccc(-c2cc(-c3ccc(C(=O)N[C@H]4C[C@@H](O)[C@@H](O)NC(=O)[C@@H]5[C@@H](O)[C@@H](C)CN5C(=O)[C@H]([C@H](O)CC(N)=O)NC(=O)[C@H]([C@H](O)[C@@H](O)c5ccc(O)c(OS(=O)(=O)O)c5)NC(=O)[C@@H]5C[C@@H](O)CN5C(=O)[C@H]([C@@H](C)O)NC4=O)cc3)no2)cc1 [MICAFUNGIN] (X1-[Orn(4R-OH,5R-OH)]T[Hyp][hTyr(3S-OH,4S-OH,3'-OSO3H)][Gln(3R-OH)][Pro(3S-OH,4S-Me)]; lactam 1-C) |  |  |  |  |  |  |  |  |  |  |  |  |  |  | > 256 µg/mL | 
O=C(c1ccc(F)cc1)N1CCN(CC(=O)N2CCCC23Cc2ccccc2NC3=O)CC1 (stereo not given) | 16 µg/mL (≈ 35.5 µM) | 4 µg/mL (≈ 8.88 µM) | 8 µg/mL (≈ 17.8 µM) | 8 µg/mL (≈ 17.8 µM) | 76.7% | 256 µg/mL | 64 µg/mL (≈ 142 µM) | 64 µg/mL (≈ 142 µM) | 130 µM | 64 µg/mL | 64 µg/mL (≈ 142 µM) | 128 µg/mL | 64 µg/mL | 64 µg/mL (≈ 142 µM) | 64 µg/mL (≈ 142 µM) | 

The next lines start with results.

MIC (Cryptococcus neoformans [1]) | MIC (Candida albicans [4]) | MIC (Aspergillus flavus [10]) | MIC (Aspergillus fumigatus [13]) | inhibition (Candida tropicalis [15]) | SMILES | MIC (Aspergillus fumigatus [2]) | MIC (Candida albicans [5]) | MIC (Aspergillus flavus [6]) | IC50 [7] | MIC (Aspergillus flavus [8]) | MIC (Cryptococcus neoformans [9]) | MIC (Cryptococcus neoformans [11]) | MIC (Candida albicans [12]) | MIC (Aspergillus fumigatus [14]) | MIC (Candida albicans [17]) | other results
32 µg/mL (≈ 57.3 µM) | 8 µg/mL (≈ 14.3 µM) | 16 µg/mL (≈ 28.7 µM) | 16 µg/mL (≈ 28.7 µM) | 54.2% | O=C(c1ccccc1I)N1CCN(CC(=O)N2CCCC23Cc2ccccc2NC3=O)CC1 (stereo not given) |  |  |  |  |  |  |  |  |  |  | 
32 µg/mL (≈ 68.5 µM) | 16 µg/mL (≈ 34.3 µM) | 16 µg/mL (≈ 34.3 µM) | 16 µg/mL (≈ 34.3 µM) | 61.4% | O=C(c1ccccc1Cl)N1CCN(CC(=O)N2CCCC23Cc2ccccc2NC3=O)CC1 (stereo not given) |  |  |  |  |  |  |  |  |  |  | 
32 µg/mL (≈ 62.6 µM) | 8 µg/mL (≈ 15.6 µM) | 16 µg/mL (≈ 31.3 µM) | 16 µg/mL (≈ 31.3 µM) | 58.8% | O=C(c1cccc(Br)c1)N1CCN(CC(=O)N2CCCC23Cc2ccccc2NC3=O)CC1 (stereo not given) |  |  |  | 320 µM |  |  |  |  |  |  | 
128 µg/mL (≈ 277 µM) | 32 µg/mL (≈ 69.2 µM) | 64 µg/mL (≈ 138 µM) | 32 µg/mL (≈ 69.2 µM) | 50.7% | COc1cccc(C(=O)N2CCN(CC(=O)N3CCCC34Cc3ccccc3NC4=O)CC2)c1 (stereo not given) |  |  |  |  |  |  |  |  |  |  | 
